From US20200399308A1, “COMPOUNDS AND METHODS FOR ELICITING ANTIMICROBIAL ACTIVITY” (Technion Research & Development Foundation Limited, priority 2018, published 2020)
Converted amounts (≈) assume the structure as drawn. Where two headings read alike, the source gives them in different places. Non-standard residues stand in square brackets, D forms with d. Residues, ends and D or L forms follow the SMILES beside them. *: point of attachment. 12Ado = NCCCCCCCCCCCC(=O)O; Decanoyl = CCCCCCCCCC(=O)*

Tests used:
[1] = Hydrophobicity (H) by HPLC elution from C18 column; assay type: physicochemical; conditions: percentage of acetonitrile required for elution
[2] = system: Pseudomonas aeruginosa 11662; experiment: Minimal inhibitory concentration; assay type: cell-based
Description: (§1) Minimal inhibitory concentrations (MICs) were determined as previously described. […] MICs were determined by microdilution susceptibility testing in 96-well plates (by Nunc) using inocula of 10^5 bacteria per ml. Cell populations were evaluated by optical density measurements at 620 nm and were calibrated against a set of standards. Hundred (100) μl of a bacterial suspension were added to 100 μl of culture medium (control) or to 100 μl of culture medium containing various tested compound concentrations in 2-fold serial dilutions. Inhibition of proliferation was determined by optical density measurements at 620 nm after an incubation period of 24 hours at 37° C. Data were obtained from ≥2 independent experiments performed in duplicate.
(§2) The mean value (±SD) is shown for Compound C; Minimum inhibitory concentration (MIC) of compounds required to inhibit bacterial proliferation after overnight incubation.

[3] = system: Salmonella enterica serovar Typhimurium 14028; experiment: Minimal inhibitory concentration; assay type: cell-based
Description: as §1, §2

[4] = system: Salmonella enterica serovar Choleraesuis 7308; experiment: Minimal inhibitory concentration; assay type: cell-based
Description: as §1, §2

[5] = system: Klebsiella pneumoniae C2 (carbapenemase 2-producing strain); experiment: Minimal inhibitory concentration; assay type: cell-based
Description: as §1, §2

[6] = system: Escherichia coli 25922; experiment: Minimal inhibitory concentration; assay type: cell-based
Description: as §1, §2

[7] = system: Escherichia coli ML35p; experiment: Minimal inhibitory concentration; assay type: cell-based; conditions: Ec ML35p, overnight incubation
Description: as §1, §2

[8] = system: Pseudomonas aeruginosa 11816; experiment: Minimal inhibitory concentration; assay type: cell-based
Description: as §1, §2

[9] = system: Klebsiella pneumoniae 1287; experiment: Minimal inhibitory concentration; assay type: cell-based
Description: as §1, §2

[10] = system: Escherichia coli mutant ML-35p; experiment: Outer and cytoplasmic membrane permeabilization (nitrocefin / ONPG); assay type: cell-based; conditions: E. coli ML-35p, buffer, 16 minutes after addition
Description: Membrane permeabilization was assessed using E. coli ML-35p as described elsewhere, to monitor the ability of the compounds to perturb the outer and/or cytoplasmic membranes. Reported data were obtained from ≥2 independent experiments performed in duplicate.
Additional support for this view was obtained by comparing the compounds' susceptibility to damage gram-negative bacteria membranes, using the E. coli mutant ML-35p. Widely described in the literature, the mutant was considered herein as representative of all gram-negative bacteria, rather than a specific species. This mutant is constitutive for cytoplasmic β-galactosidase, lacks lactose permease, and expresses a plasmid-encoded periplasmic β-lactamase. Two chromogenic reporter molecules (nitrocefin and 2-nitrophenyl β-d-galactopyranoside, respectively, absorbing at 486 and 420 nm) were used to monitor permeabilization of the outer membrane and/or cytoplasmic membrane in a single assay.

[11] = Charge at physiological pH (Q); assay type: physicochemical
[12] = Hemolytic assay; assay type: cell-based; conditions: fresh mouse red blood cells (1%); hemolysis of 50% of mouse red blood cells (1%) after 3 hours in PBS; read-out: LC50, fifty percent lethal concentration (hemolysis)
Description: (§3) Organization of the compounds in aqueous solution was assessed by light-scattering measurements in phosphate buffered saline (PBS; 10 mM Na2HPO4, 150 mM NaCl, pH=7.0). Hemolytic assays were performed as described elsewhere, using fresh mouse red blood cells.
as §2

[13] = Critical aggregation concentration by light scattering in PBS; assay type: physicochemical; conditions: light scattering in phosphate-buffered saline
Description: as §3, §2

[14] = system: E. coli 25922; experiment: Time-kill kinetics in broth versus plasma; assay type: cell-based, Escherichia coli
Description: (§4) Time-kill kinetics data were determined using 100 μl of bacterial suspension (10^6 CFU/ml), which was added to […] LB containing none of or specified concentrations of the tested compound, antibiotic, and combinations thereof. After the specified exposure time points (37° C. under shaking), aliquots were formed, subjected to serial 10-fold dilutions in saline (0.85% NaCl), and plated for bacterial enumeration after additional 24 hours incubation at 37° C. Time-kill experiments in human and mouse plasma were performed as described elsewhere. The effects of drug delay were assessed in LB, except that bacteria were pre-incubated with the tested compound or antibiotic for the specified time points, centrifuged, and resuspended in fresh LB-containing antibiotic or the tested compound, respectively, and incubated for 3 hours before CFU enumeration.

[15] = system: Escherichia coli 25922; experiment: Mouse peritonitis-sepsis model; assay type: in vivo; conditions: neutropenic ICR mice; erythromycin 100 mg/kg s.c. + Compound B […] s.c.
Description: A mouse peritonitis-sepsis model was created as described elsewhere. Infection was obtained after intraperitoneal injection of bacteria from a logarithmic-phase culture. Infected mice were treated subcutaneously. The doses were selected to allow comparison with the reference compound and to remain below the maximum tolerated dose after double-dose administration. […] Briefly, mouse peritonitis sepsis model for in vivo studies were performed using male ICR mice ([…]) obtained from Envigo Laboratories (Rehovot, Israel). […] Infection was obtained by intraperitoneal injection of a logarithmic phase culture of E. coli 25922 (1.3±0.2×10^6 CFU permouse in 0.3 ml PBS). […] Infection control mice were injected with the PBS vehicle. Mouse survival was monitored for up to 7 days after treatment. Statistical analyses were performed by paired Student's t test, at α=0.05.

[16] = Subcutaneous 25 mg/kg, published data, cited from earlier work
[17] = system: E. coli strain 14384; experiment: Checkerboard antibiotic MIC with Compound B; assay type: cell-based, Escherichia coli
Description: as §1
(§5) Shown in parentheses are calculated sensitization factor, defined as antibiotic's MICs ratio (in absence vs. presence of Compound B) at specified Compound B concentration.

[18] = system: E. coli strain 16327; experiment: Checkerboard antibiotic MIC with Compound B; assay type: cell-based, Escherichia coli
Description: as §1, §5

[19] = system: E. coli strain 35218; experiment: Checkerboard antibiotic MIC with Compound B; assay type: cell-based, Escherichia coli
Description: as §1, §5

[20] = system: E. coli strain 25922; experiment: Checkerboard antibiotic MIC with Compound B; assay type: cell-based, Escherichia coli
Description: as §1, §5

[21] = system: E. coli strain 14182; experiment: Checkerboard antibiotic MIC with Compound B; assay type: cell-based, Escherichia coli
Description: as §1, §5

[22] = system: E. coli 25922; experiment: Simultaneous versus delayed drug exposure assay in LB; assay type: cell-based, Escherichia coli; conditions: Compound B 10 μM with 0.06 μg/ml rifampin or 4 μg/ml erythromycin, LB
Description: as §4

[23] = system: E. coli 25922; experiment: Ethidium bromide permeability assay; assay type: cell-based, Escherichia coli; conditions: t=20 minutes
Description: Ethidium bromide permeability assays were performed as follows: Overnight cultures were adjusted to 1.0 OD (600 nm) and centrifuged for 5 minutes at 15,000 g. Pellets were washed twice with PBS containing 0.5% glucose, resuspended, and incubated for 10 minutes at 37° C. with shaking. A […] suspension was mixed in a black 96-well plate with […] of the tested compound and ethidiumbromide (1 μg/ml), and the fluorescence was recorded (excitation 535 nm, emission 590 nm) for up to 30 minutes at 37° C. with shaking. Data were obtained from at least 2 independent experiments.
(FU denotes fluorescence units; triangles denote Compound B, circles denote PMB, squares denote untreated control; error bars=SD).

[24] = system: Escherichia coli 25922; experiment: Mouse thigh infection model; assay type: in vivo; conditions: normal mice inoculated intramuscularly, treated s.c. 1 hour thereafter, CFU 24 hours post-treatment
Description: Mouse thigh infection model was afforded from normal ICR mice, which were inoculated intramuscularly and treated subcutaneously 1 hour thereafter with a tested compound or polymyxin B (PMB; Sigma-Aldrich) as described elsewhere. P values were calculated using a 1-tailed t test (assuming unequal variance). A P value of <0.05 is considered statistically significant.

[25] = 20 mg/kg body weight; reported; cited from earlier work

## CCCCCCCCCC(=O)NC(CCCCN)C(=O)NC(CCCCN)C(=O)NCCCCCCCCCCCC(=O)NC(CCCCN)C(N)=O (centres unmarked) [Compound A] (Decanoyl-KK[12Ado]K-NH2; configuration not given here)
[1]
  H, hydrophobicity: 44%
[2]; 11662
  MIC: > 50 µM
[3]
  MIC: > 50 µM
[4]; CHOLERAESUIS / SC7308
  MIC: > 50 µM
[5]
  MIC: > 50 µM
[6]; 25922
  MIC: > 50 µM
[7]
  MIC: > 50 µM
[8]; 11816
  MIC: > 50 µM
[9]; 1287
  MIC: > 50 µM
[10]
  cytoplasmic membrane permeabilization: similarly unable to permeabilize the cytoplasmic membrane at least up to approximately 10 μM
  outer membrane permeabilization: similarly potent in inducing outer membrane permeabilization
[11]
  Q, charge at physiological pH: 3
[12]
  CC50 at 3 h: > 100 µM
[13]
  CAC, critical aggregation concentration: >100 µM

## CCCCCCCCCC(=O)NC(CCCNC(=N)N)C(=O)NC(CCCNC(=N)N)C(=O)NCCCCCCCCCCCC(=O)NC(CCCNC(=N)N)C(N)=O (centres unmarked) [Compound C] (Decanoyl-RR[12Ado]R-NH2; configuration not given here)
[1]
  H, hydrophobicity: 46%
[2]; Pa 11662, overnight incubation, read-out: MIC
  MIC: 50 µM (≈ 41.9 µg/mL)
[3]; ST 14028, overnight incubation, read-out: MIC
  MIC: > 50 µM
[4]; CHOLERAESUIS / SC7308, SC 7308, overnight incubation, read-out: MIC
  MIC: > 50 µM
[5]; Kp C2, overnight incubation, read-out: MIC
  MIC: > 50 µM
[6]; Ec 25922, overnight incubation, read-out: MIC
  MIC: 25 µM (≈ 20.9 µg/mL)
[7]
  MIC: 12.5 µM (≈ 10.5 µg/mL)
[8]; Pa 11816, overnight incubation, read-out: MIC
  MIC: 50 µM (≈ 41.9 µg/mL)
[9]; Kp 1287, overnight incubation, read-out: MIC
  MIC: 50 µM (≈ 41.9 µg/mL)
[10]
  cytoplasmic membrane permeabilization: somewhat higher tendency for cytoplasmic membrane damaging
[11]
  Q, charge at physiological pH: 3
[12]
  CC50 at 3 h: 80 ± 1 µM
[13]
  CAC, critical aggregation concentration: >100 µM

## CC[C@H]1OC(=O)[C@H](C)[C@@H](O[C@H]2C[C@@](C)(OC)[C@@H](O)[C@H](C)O2)[C@H](C)[C@@H](O[C@@H]2O[C@H](C)C[C@H](N(C)C)[C@H]2O)[C@](C)(O)C[C@@H](C)C(=O)[C@H](C)[C@@H](O)[C@]1(C)O [Erythromycin, erythromycin]
[14]; LB broth, 24-hours end point, erythromycin 3 μg/ml combined with Compound B 0.6 μM
  effect on CFU count: did not alter the CFU count
[14]; human plasma, antibiotic with Compound B 0.6 μM
  time to accomplish the CFU reduction (more than 3 log units): ≤ 3 hours
[14]; mouse plasma, 24 hours end point, Compound B 10 μM with rifampin 1 μg/ml or erythromycin 3 μg/ml
  combined action with Compound B: expressed synergism of action
[15]
  efficacy of combination vs individual administrations: clearly more effective in combination
[16]; 0.5 h
  Plasma concentration: 3700 ng/mL
[16]; 1 h
  Plasma concentration: 2300 ng/mL
[16]; 2 h
  Plasma concentration: 400 ng/mL
[17]; Compound B 0 μM
  Antibiotic MIC in the presence of Compound B: >512 µg/mL
[17]; Compound B 2.5 μM
  Antibiotic MIC in the presence of Compound B: 2 µg/mL
[17]; Compound B 5 μM
  Antibiotic MIC in the presence of Compound B: 1 µg/mL
[17]; Compound B 10 μM
  Antibiotic MIC in the presence of Compound B: 0.5 µg/mL
[17]; Compound B […]
  Antibiotic MIC in the presence of Compound B: 64 µg/mL
[18]; Compound B 0 μM
  Antibiotic MIC in the presence of Compound B: 512 µg/mL
[18]; Compound B 2.5 μM
  Antibiotic MIC in the presence of Compound B: 4 µg/mL
[18]; Compound B 5 μM
  Antibiotic MIC in the presence of Compound B: 1 µg/mL
[18]; Compound B 10 μM
  Antibiotic MIC in the presence of Compound B: 0.5 µg/mL
[18]; Compound B […]
  Antibiotic MIC in the presence of Compound B: 64 µg/mL
[19]; Compound B 2.5 μM
  Antibiotic MIC in the presence of Compound B: 4 µg/mL
[19]; Compound B 5 μM
  Antibiotic MIC in the presence of Compound B: 1 µg/mL
[19]; Compound B 10 μM
  Antibiotic MIC in the presence of Compound B: 0.5 µg/mL
[19]; Compound B […]
  Antibiotic MIC in the presence of Compound B: 64 µg/mL
[20]; Compound B 2.5 μM
  Antibiotic MIC in the presence of Compound B: 2 µg/mL
[20]; Compound B 5 μM
  Antibiotic MIC in the presence of Compound B: 0.5 to 1 µg/mL
[20]; Compound B 10 μM
  Antibiotic MIC in the presence of Compound B: 0.25 µg/mL
[20]; Compound B […]
  Antibiotic MIC in the presence of Compound B: 8 µg/mL
[21]; Compound B 2.5 μM
  Antibiotic MIC in the presence of Compound B: 16 µg/mL
[21]; Compound B 5 μM
  Antibiotic MIC in the presence of Compound B: 4 µg/mL
[21]; Compound B 10 μM
  Antibiotic MIC in the presence of Compound B: 1 µg/mL
[22]
  effect of delayed exposure on sensitization by Compound B: delay by up to 60 (but not 120) minutes revealed maintenance of the sensitization activity

## polymyxin B [PMB]
[23]
  CM permeability to ethidium bromide: increased significantly more than Compound B
[24]
  reduction of the number of inoculated E. coli: 64%
[25]
  mortality: zero
